Measurements: patent publication US9862748B2, “Peptide compounds and methods of production and use thereof” (priority 2012, dated 2018)

Key:
corneas = test: Corneal cytokines after intrastromal injection (MILLIPLEX MAP mouse cytokine assay); type: in vivo; settings: intrastromal 0.5 μl, 10^−4, 10^−5, 10^−6 M; 24 and 48 hours
Description: Corneas were injected intrastromally with 0.5 μl of peptide 95-122 at a final concentration of 10^−4 M, 10^−5 M, and 10^−6 M and vehicle (saline) control. Corneas were collected and flash frozen at 24 hours and 48 hours. Corneal lysates were analyzed for cytokines using the MILLIPLEX® MAP mouse cytokine assay for IL-7 (A), IL-15 (B), IFN-γ (C), MIP1-α (D) (EMD Millipore Corp., Billerica, Mass.). The means of independent experimental values are shown ±SEM. ***P<0.001, **P<0.01, *P<0.05 by unpaired t-test as compared to vehicle treated controls. […] Corneas were injected intrastromally with 0.5 μl of peptide 95-122 at a final concentration of 10^−4 M, 10^−5 M, and 10^−6 M and vehicle (saline) control. Corneas were collected and flash frozen at 24 hours and 48 hours. Corneal lysates were analyzed for cytokines using the MILLIPLEX® MAP mouse cytokine assay for MIP1-β (EMD Millipore Corp., Billerica, Mass.). **P<0.01, *P<0.05 by unpaired t-test as compared to vehicle treated controls. […] Corneas were injected intrastromally with 0.5 μl of peptide 95-122 at a final concentration of 10^−4 M, 10^−5 M, and 10^−6 M and vehicle (saline) control. Corneas were collected and flash frozen at 24 hours and 48 hours. Corneal lysates were analyzed for cytokines using the MILLIPLEX® MAP mouse cytokine assay for KC (A), IL-1β (B), and GM-CSF (C) (EMD Millipore Corp., Billerica, Mass.). **P<0.01, *P<0.05 by unpaired t-test as compared to vehicle treated controls.

[1] = system: mouse cornea (corneal epithelial abrasion); test: In vivo model of corneal wound healing; settings: treated at 0 and 16 hours; 95-122 10^−5 M; 120-146WH 10^−8 M or 10^−6 M; HB-EGF 250 ng/ml
Description: The in vivo model of wound healing was carried out using a disposable biopsy punch (2 mm, Miltex, York, Pa.) to demarcate the mouse cornea and a 0.5 mm burr using the AlgerBrush II (The Alger Company, Inc., Lago Vista, Tex.) to remove the corneal epithelium.
Mice were anesthetized using ketamine (100 mg/kg; Bionichepharma, LLC., St. Lake Forrest, Ill.) and xylazine ([…]; Rompun; Bayer Corp., Shawnee Mission, Kans.), and the right cornea was wounded as follows. A disposable biopsy punch (2 mm, Miltex, York, Pa.) was used to demarcate the mouse cornea. The corneal epithelium was carefully removed within the 2 mm demarcated area with a 0.5 mm burr using the AlgerBrush II (The Alger Company, Inc., Lago Vista, Tex.). The corneal abrasions were treated at 0 and 16 hours with HB-EGF (250 ng/ml), rCAP37 (250 ng/ml), or vehicle control (0.9% sodium chloride, pH 5.5, Baxter, Deerfield, Ill.). Corneal abrasions were visualized using sterile fluorescein sodium ophthalmic strips USP (FLUORETS®, Chauvin Laboratory, Aubenas, France) dampened with sterile PBS. Images were taken at 0, 16, 24, and 48 hours immediately following fluorescein staining using a surgical microscope equipped with a camera (Carl Zeiss OPMI VISU 140, Carl Zeiss Surgical, Inc., Oberkochen, Germany). The areas of the open wound were quantitated using ImageJ software (US National Institutes of Health), and the results were reported as the percentage of wound closure.
Whole mouse eyes were collected for histology at 0, 6, 16, 24, and 48 hours post wounding and were immediately placed in Prefer fixative (Anatech LTD., Battle Creek, Mich.) for 20 minutes before being transferred to 70% ethanol. Tissues were paraffin-embedded and cut at a thickness of 5 μm, mounted on SUPERFROSTPLUS® slides (Statlab Medical Products, Lewisville, Tex.), and subsequently deparaffinized, rehydrated, and washed in deionized water. Sections were stained with hematoxylin (Leica Microsystems, Buffalo Grove, Ill.) and rinsed twice in deionized water before being washed in Blue Buffer (Leica Microsystems). The sections were finally washed in deionized water and 95% ethanol prior to being counterstained with eosin (Leica Microsystems). Sections were dehydrated in ethanol and cleared in xylene.

swine skin wounds [2] = test: Swine full thickness excisional dermal wound model, wound area; type: in vivo
Description: In this Example, peptide compounds of the presently disclosed and claimed inventive concept(s) were evaluated as to their activity on the dermal wound healing process in a clinically relevant swine full thickness excisional wound model. Three different peptide formulations (Group B, Peptide 95-122 (SEQ ID NO: 26); Group C, Peptide 120-146WH (SEQ ID NO: 31); and Group D, Peptide 120-146QH-5RMP (SEQ ID NO: 33)) were each evaluated at the same concentration (3 mg/ml). Sterile saline served as the control (Group A).
(§1) Full thickness excisional wounds were induced on the dorsum of swine (N=3) using a 1.0 cm biopsy punch. Treatments were administered (0.20 ml) to each wound (N=6 wounds per group), and the wounds were dressed with standard occlusive dressing ([…]™, 3M Corporation, St. Paul, Minn.). Treatments were reapplied daily and dressings changed. Clinical wound healing observations and wound area (2 mm) measurements were performed on days 0, 3, 5, 7, 10, and 14 post-wounding. Wound area (2 mm) data were expressed as percentage (%) of wound healing. Animals were terminated on day 14 with wounds harvested and processed for histological evaluation. […] All peptide formulation treatment groups healed faster with greater rate of closure and re-epithelialization over time, as compared to the saline control (Group A).

swine skin wounds [3] = test: Swine dermal wound model, histological evaluation; type: in vivo; settings: day 14 post-wounding
Description: The characteristics that were measured are required to indicate features of a well-healed wound. Inflammation should be low and re-epithelialization high.
as §1
The histology correlated with the clinical observations. […] There were minimal differences in the amount or character of granulation tissue, inflammation, and angiogenesis. All the wounds were well filled and vascularized.

[4] = 3 mg/ml, 0.20 ml per wound, reapplied daily

For “LDREANLTSSVTILPLPLQNATVEAGTR (listed as Homo sapiens) [Peptide 95-122]”, the “GM-CSF in corneal lysates” value (corneas) was “significantly increases”, the “IFN-γ in corneal lysates” value (corneas) was “significantly increases” and the “IL-1β in corneal lysates” value (corneas) was “significantly increases”. For the same sequence, the “IL-7 in corneal lysates” value (corneas) was “significantly increases”, the “IL-15 in corneal lysates” value (corneas) was “significantly increases” and the “KC in corneal lysates” value (corneas) was “significantly increases”. The “MIP1-0 (MIP1-β) in corneal lysates” value (corneas) was “significantly increases”, the “MIP1-α in corneal lysates” value (corneas) was “significantly increases” and the “corneal wound healing versus vehicle” value [1] was “promotes corneal wound healing”. For the same sequence, the “Mean Wound Healing (%) Day 0” value (swine skin wounds [2]; [4]) was 0.0%, the “Mean Wound Healing (%) Day 3” value (swine skin wounds [2]; [4]) was 28.9% and the “Mean Wound Healing (%) Day 5” value (swine skin wounds [2]; [4]) was 41.5%. For the same sequence, the “Mean Wound Healing (%) Day 7” value (swine skin wounds [2]; [4]) was 70.8%, the “Mean Wound Healing (%) Day 10” value (swine skin wounds [2]; [4]) was 99.7% and the “Mean Wound Healing (%) Day 14” value (swine skin wounds [2]; [4]) was 100.0%. The “dermal wound healing” value (swine skin wounds [2]; topical 3 mg/ml over 14 days, vs saline) was “accelerate dermal wound healing”, the “epidermal resurfacing and maturation of the epidermis versus saline control” value (swine skin wounds [3]) was “greater extent of epidermal resurfacing and maturation of the epidermis” and the “Histopathology Results, Mean Angiogenesis” value (swine skin wounds [3]; 3 mg/ml) was 2.3. For the same sequence, the “Histopathology Results, Mean Epithelization” value (swine skin wounds [3]; 3 mg/ml) was 4.0, the “Histopathology Results, Mean Granulation” value (swine skin wounds [3]; 3 mg/ml) was 4.0 and the “Histopathology Results, Mean Inflammation” value (swine skin wounds [3]; 3 mg/ml) was 0.5.
